Data on one compound can be found in patent US10010560B2, “Small molecule HSP70 inhibitors” (THE TRUSTEES OF THE UNIVERSITY OF PENNSYLVANIA, priority 2014, dated 2018).

The subject of assay [1] is mouse melanoma cell line B16. Kind of assay: Pulmonary metastatic model, B16 melanoma. The format is in vivo. The following applies: C57BL/6 mice injected with B16. As for the experimental part: FIGS. 7A-7C illustrate that PET-16 impairs metastasis in a mouse model of melanoma. A well-recognized pulmonary metastatic model was utilized in which immunocompetent, wild-type C57BL/6 mice were injected with the highly metastatic mouse melanoma cell line B16, as indicated. […] FIG. 7A is a summary of the steps entailed in the model. FIG. 7B are photographs of biopsied lungs obtained from the infected mice. FIG. 7C provides a graphical representation of counts of metastatic colonies intermediate gray square represents 0 colonies, lightest gray square represents 1-10 colonies and darkest gray square represents >10 colonies) seen in lungs of vehicle-, PES-Cl- or PET-16-treated mice.
The inhibitory effect of PET-16 on metastasis was tested in vivo, a well-recognized pulmonary metastatic model was utilized in which immunocompetent, wild-type C57BL/6 mice were injected with the highly metastatic mouse melanoma cell line B16 (FIG. 7).

The test system of assay [2] is melanoma tumor cell lines. Kind of assay: Cellular ATP levels (AlamarBlue assay) in tumor cells. The class given is cell-based, human. The text has this:
FIGS. 5A-5F illustrates that PET-16 leads to loss of mitochondrial protein Cyclophilin D and impairs bioenergetics in tumor cells. FIGS. 5A-5D are western blots of HSP70, which is present at mitochondria of tumor H1299 cells but not in normal tissue, such as liver. The constitutively expressed 70 kDa family members, HSC70 and GRP75, are present in mitochondria of normal cells. Equal amounts of whole cell (WC)-, cytosolic (cyto)-, and mitochondrial (mito)-extracts prepared from cell lines H1299 (A, C) and MIA PaCa-2 (B) or normal (liver) cells (C, D) were examined by western blot analysis for the presence of the proteins indicated. […] Decreases of AlamarBlue® fluorescence, indicative of mitochondrial damage, are noted in PET-16-treated tumor cells (melanoma tumor cell line WM88 (-), melanoma tumor cell line WM3000 (×), melanoma tumor cell line WM852 (*), human melanoma 451 Lu cells (●), and melanoma tumor cell line WM989 (|), but not normal cells (nontransformed human fibroblasts (IMR90-♦) and primary melanocytes (▪)). Values are normalized to the vehicle-treated cells. Error bars represent standard deviation (s.d.) of four independent experiments.
(Resazurin is reduced to fluorescent resorufin, in cell work by metabolically active cells.)

`C(#C[P+](c1ccccc1)(c1ccccc1)c1ccccc1)c1ccccc1.[Br-]` [PET-16, triphenyl(phenylethynyl)phosphonium bromide]: in assay [1], the lung metastases result was “significantly reduced”. In addition, the “AlamarBlue fluorescence (mitochondrial function)” value in assay [2] is on record as “clear decrease”.
